Assay results taken from ChEMBL document CHEMBL3393013, “Structural Insights for the Optimization of Dihydropyrimidin-2(1H)-one Based mPGES-1 Inhibitors” (ACS Med Chem Lett, 2015).

Molecular target: T1, Prostaglandin E synthase (Homo sapiens, UniProt O14684)
T1 sequence (O14684 whole entry): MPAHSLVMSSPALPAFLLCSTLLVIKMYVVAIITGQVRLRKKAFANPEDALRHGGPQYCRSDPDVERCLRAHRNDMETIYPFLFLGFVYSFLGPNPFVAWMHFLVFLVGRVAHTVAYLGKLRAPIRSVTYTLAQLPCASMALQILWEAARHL
Test: Inhibition of mPGES-1 in interleukin-1beta-stimulated human A549 cells microsomal membranes assessed as reduction in PGE2 formation incubated for 15 mins in presence of PGH2 and glutathione by RP-HPLC method
Assay type: cell-based

CC1=C(C(=O)c2cc(Br)ccc2O)C(c2ccc(-c3cccc(C(F)(F)F)c3)o2)NC(=O)N1 (stereo not drawn)
IC50: 5600 nM

CC1=C(C(=O)OCc2ccccc2)C(c2ccc(-c3cccc(C(F)(F)F)c3)o2)NC(=O)N1 (stereo not drawn)
IC50: 1400 nM

CC1=C(C(=O)OCc2ccccc2)C(c2ccc(-c3cccc(C(F)(F)F)c3)o2)NC(=O)N1CCC(=O)O (stereo not drawn)
IC50: 410 nM
